Consider 3 compounds from patent US20070275855A1, “Herbicidal Composition” (ISHIHARA SANGYO KAISHA, LTD., priority 2004, published 2007).

What all share (format): in vivo
In test [1] the test system is Japanese bulrush (Scirpus juncoides). The test is described as follows: Test Example 4: paddy pot test, submerged application at 2.2 to 2.8 leaf stage. The following applies: for Growth inhibition rate (%) Observed: 2.2 to 2.8 leaf stage, 29 days after application. The text has this:
(§1) Growth inhibition rate (%)=0% (equivalent to the non-treated area) to 100% (complete kill)
Paddy field soil was put into a 1/1,700 are pot, and seeds of Japanese bulrush (Scirpus juncoides) were sown and left to stand under an irrigated condition with a water depth of 3.5 cm. When Japanese bulrush reached 2.2 to 2.8 leaf stage, a wettable powder of compound A2, a wettable powder of compound B1 and an emulsifiable concentrate of benfuresate were, respectively, diluted with water and applied under submerged condition so that the active ingredients became the prescribed amounts, respectively. The state of growth was visually observed 29 days after application and evaluated in the same manner as in the above Test Example 1.

Test [2] has as its system barnyardgrass (Echinochloa oryzicola vasing). The test is described as follows: Test Example 1: paddy pot test, submerged application on the next day after sowing. Conditions: for Growth inhibition rate (%) Observed: next day after sowing, 21 days after application.
Text: (§2) When the herbicidal activity in a case where two active ingredients are combined, is larger than the simple sum of the respective herbicidal activities of the two active ingredients (the expected activity), it is called a synergistic effect. The activity expected by the combination of two active ingredients can be calculated as follows (Colby S. R., “Weed”, vol. 15, p. 20-22, 1967). E=α+β−(α×β÷100) where α: growth inhibition rate when treated with x (g/a) of herbicide X,
(§3) β: growth inhibition rate when treated with y (g/a) of herbicide Y,
(§4) E: growth inhibition rate expected when treated with x (g/a) of herbicide X and y (g/a) of herbicide Y.
(§5) Namely when the actual growth inhibition rate (observed value) is larger than the growth inhibition rate by the above calculation (expected value), the activity by the combination can be regarded as showing a synergistic effect.
Paddy field soil was put into a 1/1,700 are pot, and seeds of barnyardgrass (Echinochloa oryzicola vasing) were sown and left to stand under an irrigated condition with a water depth of 3.5 cm. On the next day after the sowing, a wettable powder of compound A2 diluted with water and a microemulsion of compound B1 as it was were, respectively, applied under submerged condition so that the active ingredients became the prescribed amounts, respectively The state of growth was visually observed 21 days after application and the growth inhibition rate (%) evaluated in accordance with the following evaluation standard (observed value) and the growth inhibition rate (%) calculated by the above-mentioned Colby method (expected value) are shown in Table 1.
as §1

Test [3] shares this test system. The test is described as follows: Test Example 2: paddy pot test, submerged application at 2 leaf stage. The following applies: for Growth inhibition rate (%) Observed: 2 leaf stage, 18 days after application.
Text: as §2, §3, §4, §5, §1
Paddy field soil was put into a 1/10,000 are pot, and seeds of barnyardgrass (Echinochloa oryzicola vasing) were sown and left to stand under an irrigated condition with a water depth of 3.5 cm. When barnyardgrass reached 2 leaf stage, a wettable powder of compound A2 diluted with water and a microemulsion of compound B1 as it was were, respectively, applied under submerged condition so that the active ingredients became the prescribed amounts, respectively. The state of growth was visually observed 18 days after application and evaluated in the same manner as in the above Test Example 1.

The test system is the same in test [4]. The test is described as follows: Test Example 5: paddy pot test, submerged application at 2.4 to 3.2 leaf stage.
Text: as §1
Paddy field soil was put into a 1/10,000 are pot, and seeds of barnyardgrass (Echinochloa oryzicola vasing) were sown and left to stand under an irrigated condition with a water depth of 3.5 cm. When barnyardgrass reached 2.4 to 3.2 leaf stage, wettable powders of compound A2 compound B1 and azimsulfuron were, respectively, diluted with water and applied under submerged condition so that the active ingredients became the prescribed amounts, respectively. The state of growth was visually observed 29 days after application and evaluated in the same manner as in the above Test Example 1.

Test [5] shares this test system. The test is described as follows: Test Example 3: paddy pot test, submerged application at 3 leaf stage. Conditions: 504 h, 21 days after application, read-out: Growth inhibition rate (%) Observed.
Text: as §2, §3, §4, §5, §1
Paddy field soil was put into a 1/10,000 are pot, and seeds of barnyardgrass (Echinochloa oryzicola vasing) were sown and left to stand under an irrigated condition with a water depth of 3.5 cm. […] The state of growth was visually observed 21 days after application and evaluated in the same manner as in the above Test Example 1.

The mark [6] stands for this setting: Echinochloa oryzicola, 504 h, read-out: Growth inhibition rate (%) Observed.
[7] abbreviates: Echinochloa oryzicola, 432 h, read-out: Growth Inhibition rate (%) Observed.
Where [8] appears, read: Schoenoplectiella juncoides, 696 h, read-out: Growth inhibition rate (%) Observed.

Take `CCS(=O)(=O)Oc1ccc2c(c1)C(C)(C)CO2` [Benfuresate, benfuresate, reference compound]: the “Growth inhibition rate (%) Observed” value in test [1] (6 g/a) was 90%; in test [1] (9 g/a) it was 89%.
On to `COCC(=O)OC(c1ncccc1S(=O)(=O)NC(=O)Nc1nc(OC)cc(OC)n1)C(C)F` (stereo not drawn) [Compound A2, flucetosulfuron], for which the “Growth inhibition rate (%) Observed” value in test [2] (0.1 g/a) worked out at 95%; in test [2] (0.2 g/a), 98%; in test [3] (0.05 g/a), 84%; in test [3] (0.10 g/a), 98%; in test [3] (0.15 g/a), 99%; in test [1] (0.22 g/a) it was 87%. The “Growth inhibition rate (%) Observed” value in test [4] (0.11 g/a, 2.4 to 3.2 leaf stage, 29 days after application) was 96%.
For `CCOC(=O)C(Cl)Cc1cc(-n2nc(C)n(C(F)F)c2=O)c(F)cc1Cl` (stereo not drawn) [Compound B1, carfentrazone-ethyl], in test [2] (setting [6]), the inhibition at 20 g/ha amounted to 0% and the inhibition at 30 g/ha came to 0%. For the same compound, in test [3] (setting [7]), the inhibition at 30 g/ha stood at 3%, the inhibition at 45 g/ha amounted to 8%, the inhibition at 67.5 g/ha is 13% and the inhibition at 101.2 g/ha amounted to 18%. Further, in test [5] (0.113 g/a), the inhibition at 11.3 g/ha came to 0%. The inhibition at 22.5 g/ha in test [5] (0.225 g/a) is 0%. Also, in test [1] (setting [8]), the inhibition at 50 g/ha came to 80%, the inhibition at 100 g/ha came out at 100% and the inhibition at 150 g/ha worked out at 99%. Moreover, the inhibition at 37.5 g/ha in test [4] (Echinochloa oryzicola, 696 h, read-out: Growth inhibition rate (%) Observed) turned out to be 5%.

The term inhibition denotes the drop in the measured response relative to a control, in per cent.
